# Assay results taken from ChEMBL document CHEMBL1131612, “6-Amino-2-(4-fluorophenyl)-4-methoxy-3- (4-pyridyl)-1H-pyrrolo[2, 3-b]pyridine (RWJ 68354): a potent and selective p38 kinase inhibitor” (J Med Chem, 1998).
# Assays:
# [1] = Percent inhibition of LPS-stimulated TNF-alpha release in fasted BALB/cJ mice at 10 mg/kg; type: functional; conditions: Mus musculus
# [2] = molecular target: Proto-oncogene tyrosine-protein kinase Src (Homo sapiens) (UniProt P12931); experiment: Inhibition of c-Src tyrosine kinase at 5 uM
# [3] = molecular target: Mitogen-activated protein kinase 1 (Homo sapiens) (UniProt P28482); experiment: Inhibition of Mitogen-activated protein kinase 1 (ERK-2 enzyme) at 10 uM
# [4] = Percent inhibition of LPS-stimulated TNF-alpha release in fasted BALB/cJ mice at 25 mg/kg; type: functional; conditions: Mus musculus
# [5] = molecular target: cAMP-dependent protein kinase (PKA) (Homo sapiens) (UniProt P22694+P17612+P22612); experiment: Inhibition of Protein kinase A at 5 uM; type: protein assay
# [6] = molecular target: T1, Prostaglandin G/H synthase 1 (Homo sapiens, UniProt P23219); experiment: Inhibition of Prostaglandin G/H synthase 1 at 5 uM (Inactive)
# PBMC [7] = experiment: cells; conditions: Homo sapiens
# Description: Inhibition of LPS-stimulated TH+NF-alphs production by human peripheral blood mononuclear cells (PBMCs)
# PBMC [8] = experiment: cells; type: functional, cell-based; conditions: Homo sapiens
# [9] = molecular target: T1, Prostaglandin G/H synthase 1; experiment: Inhibition of Prostaglandin G/H synthase 1 at 5 uM
# animal or person [10] = conditions: Mus musculus, read-out: Inhibition
# animal or person [11] = conditions: Mus musculus, read-out: Inhibition; remark: listed apart in the source
# Chain of Mitogen-activated protein kinase 1 (Homo sapiens) (P28482 whole entry): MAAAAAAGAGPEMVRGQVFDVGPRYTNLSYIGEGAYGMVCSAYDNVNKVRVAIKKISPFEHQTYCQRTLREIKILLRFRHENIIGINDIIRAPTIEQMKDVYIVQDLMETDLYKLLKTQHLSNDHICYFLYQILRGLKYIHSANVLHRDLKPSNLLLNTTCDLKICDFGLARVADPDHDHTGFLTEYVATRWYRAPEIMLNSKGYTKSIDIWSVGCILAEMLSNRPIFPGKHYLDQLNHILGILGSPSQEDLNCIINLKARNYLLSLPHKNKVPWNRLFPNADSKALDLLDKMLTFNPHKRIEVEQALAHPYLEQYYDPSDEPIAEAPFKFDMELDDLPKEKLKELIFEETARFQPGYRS
# Chain of Proto-oncogene tyrosine-protein kinase Src (Homo sapiens) (P12931 2-536 limits assumed): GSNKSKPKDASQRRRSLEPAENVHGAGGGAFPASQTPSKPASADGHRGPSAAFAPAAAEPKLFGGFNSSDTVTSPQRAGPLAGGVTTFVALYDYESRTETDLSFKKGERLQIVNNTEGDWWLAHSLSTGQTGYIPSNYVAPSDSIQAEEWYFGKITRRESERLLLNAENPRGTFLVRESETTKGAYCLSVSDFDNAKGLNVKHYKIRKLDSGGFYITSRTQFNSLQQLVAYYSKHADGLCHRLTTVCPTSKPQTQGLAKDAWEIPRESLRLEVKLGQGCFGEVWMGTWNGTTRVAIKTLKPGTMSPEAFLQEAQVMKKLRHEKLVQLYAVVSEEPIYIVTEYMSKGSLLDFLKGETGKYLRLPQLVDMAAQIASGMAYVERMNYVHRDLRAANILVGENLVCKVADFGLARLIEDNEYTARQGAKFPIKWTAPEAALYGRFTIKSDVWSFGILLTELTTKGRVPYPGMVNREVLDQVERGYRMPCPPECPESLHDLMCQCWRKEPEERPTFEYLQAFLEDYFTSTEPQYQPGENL
# T1 sequence (P23219 whole entry): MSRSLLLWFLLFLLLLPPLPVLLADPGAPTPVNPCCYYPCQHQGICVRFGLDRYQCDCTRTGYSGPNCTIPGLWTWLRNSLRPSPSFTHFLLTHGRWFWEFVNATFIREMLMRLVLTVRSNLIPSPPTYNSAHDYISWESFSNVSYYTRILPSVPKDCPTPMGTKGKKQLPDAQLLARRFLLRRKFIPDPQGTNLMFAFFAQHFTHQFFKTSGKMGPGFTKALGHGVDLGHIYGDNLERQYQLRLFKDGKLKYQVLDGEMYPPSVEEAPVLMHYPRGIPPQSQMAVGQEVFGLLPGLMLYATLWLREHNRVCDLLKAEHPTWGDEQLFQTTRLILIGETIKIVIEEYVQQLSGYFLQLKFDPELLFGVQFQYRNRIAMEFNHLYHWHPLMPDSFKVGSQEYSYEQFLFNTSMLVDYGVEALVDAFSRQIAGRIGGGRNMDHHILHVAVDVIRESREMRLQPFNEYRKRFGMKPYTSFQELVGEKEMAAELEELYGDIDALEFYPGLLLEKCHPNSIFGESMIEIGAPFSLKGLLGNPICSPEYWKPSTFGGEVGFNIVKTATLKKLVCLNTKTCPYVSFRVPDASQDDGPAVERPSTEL
SMILES,inhibition in vivo at 10 mg/kg [1] [%],inhibition [2] [%],inhibition [3] [%],inhibition in vivo at 25 mg/kg [4] [%],inhibition [5] [%],IC50 [6],IC50 (PBMC [7]) [nM],IC50 (PBMC [8]) [nM],IC50 [9] [nM],inhibition in vivo at 25 mg/kg (animal or person [10]) [%],inhibition in vivo at 10 mg/kg (animal or person [11]) [%]
C[S+]([O-])c1ccc(-c2nc(-c3ccc(F)cc3)c(-c3ccncc3)[nH]2)cc1 (stereo not drawn) [SB-203580],33,54,22,83,0,,,,,,
Nc1cc(OCc2ccccc2)c2c(-c3ccncc3)c(-c3ccc(F)cc3)[nH]c2n1,11,19,,86,0,Not Active,0.91,,,,
Nc1ccc2c(-c3ccncc3)c(-c3ccc(F)cc3)[nH]c2n1,73,63,0,98,16,Not Active,37,450,,,
COc1cccc(COc2cc(N)[nH]c3nc(-c4ccc(F)cc4)c(-c4ccncc4)c2-3)c1,,58,,,0,,1.5,,,,
CCCCOc1cc(N)[nH]c2nc(-c3ccc(F)cc3)c(-c3ccncc3)c1-2,27,18,,71,0,Not Active,4,,,,
C[S+]([O-])c1ccc(-c2nc(-c3ccncc3)c(-c3ccc(F)cc3)[nH]2)cc1 (stereo not drawn) [SB-203580],,,,,,,,,> 5000,,
Nc1cc(OCCCc2ccccc2)c2c(-c3ccncc3)c(-c3ccc(F)cc3)[nH]c2n1,,3,,,0,,9,,,,
COc1cc(N)[nH]c2nc(-c3ccc(F)cc3)c(-c3ccncc3)c1-2,,43,23,,0,Not Active,,,,99,85
